pIC50: −log10 of the molar value. Where a SMILES comes first, the peptide text is derived from it.
Biological target: T1, Solute carrier family 15 member 1 (Homo sapiens, UniProt P46059)
T1 sequence (P46059 whole entry): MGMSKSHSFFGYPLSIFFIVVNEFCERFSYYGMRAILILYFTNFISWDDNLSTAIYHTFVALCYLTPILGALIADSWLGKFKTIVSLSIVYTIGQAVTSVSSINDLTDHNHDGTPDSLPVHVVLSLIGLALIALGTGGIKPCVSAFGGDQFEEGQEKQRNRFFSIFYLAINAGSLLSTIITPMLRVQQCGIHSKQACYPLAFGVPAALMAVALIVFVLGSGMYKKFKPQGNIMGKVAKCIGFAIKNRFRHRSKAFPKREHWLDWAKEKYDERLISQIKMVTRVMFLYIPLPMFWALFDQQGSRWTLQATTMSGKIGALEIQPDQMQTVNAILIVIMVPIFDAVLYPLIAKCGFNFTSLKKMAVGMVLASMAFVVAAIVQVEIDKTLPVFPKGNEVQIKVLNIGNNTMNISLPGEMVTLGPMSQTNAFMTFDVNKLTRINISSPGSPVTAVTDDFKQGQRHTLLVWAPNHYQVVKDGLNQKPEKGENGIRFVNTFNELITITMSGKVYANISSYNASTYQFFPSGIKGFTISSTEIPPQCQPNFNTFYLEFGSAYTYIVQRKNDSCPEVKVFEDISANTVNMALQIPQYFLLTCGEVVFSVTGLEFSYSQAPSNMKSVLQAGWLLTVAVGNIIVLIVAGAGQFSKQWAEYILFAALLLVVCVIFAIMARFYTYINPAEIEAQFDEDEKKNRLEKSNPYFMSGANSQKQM
Test: TP_TRANSPORTER: inhibition of Gly-Sar uptake (Gly-Sar: 25000 uM) in PEPT1-expressing CHO cells
Format: functional, cell-based

Row | SMILES | pIC50
1 | NCC(=O)NCC(=O)NCC(=O)O | 2.85
2 | C[C@H](N)C(=O)N[C@@H](C)C(=O)O (H-Ala-Ala-OH) | 4.20
3 | CC1(C)S[C@@H]2[C@H](NC(=O)[C@H](N)c3ccccc3)C(=O)N2[C@H]1C(=O)O [AMPICILLIN] | 2.00
